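Five concentrations, 48 hours, 96-well plates. Abbreviation: GI50, concentration required for 50% inhibition of growth. Definition used: TGI = concentration required for complete inhibition of growth.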
Assays:
Assay in all cases: NCI anticancer screen, dose series, 48 h
[1] = test system: HCT-116 colon
[2] = test system: HOP-62 NSCLC
[3] = test system: HOP-92 NSCLC
[4] = test system: OVCAR-4 ovarian
[5] = test system: RPMI-8226 leukemia
[6] = test system: RXF 393 renal
[7] = test system: SF-268 CNS
[8] = test system: SNB-19 CNS
[9] = test system: U251 CNS
[10] = test system: TK-10 renal

SMILES: CC(=O)O[C@H](C[C@H](C(C)C)N(C)C(=O)[C@@H](NC(=O)[C@H]1CCCCN1C)C(C)C)c1cccc(C(=O)N[C@@H](Cc2ccccc2)C[C@H](C)C(=O)O)n1
- GI50 [1]: 22.2 nM
- TGI [1]: > 8.59 µM
- GI50 [2]: 0.0648 µM
- TGI [2]: > 25 µM
- GI50 [3]: 18.3 nM
- TGI [3]: > 25 µM
- GI50 [4]: 107 nM
- TGI [4]: > 25 µM
- GI50 [5]: 0.0213 µM
- TGI [5]: > 25 µM
- GI50 [6]: 22.5 nM
- TGI [6]: > 25 µM
- GI50 [7]: 0.05 µM
- TGI [7]: > 25 µM
- GI50 [8]: 0.0343 µM
- TGI [8]: > 25 µM
- GI50 [9]: 0.0353 µM
- TGI [9]: > 25 µM

SMILES: O=C(N/C(=C/c1cccc([N+](=O)[O-])c1)c1nc2ccc(Cl)cc2[nH]1)c1ccccc1
- TGI [1]: 25.8 µM
- TGI [2]: 62.5 µM
- TGI [3]: 78.4 µM
- TGI [4]: 90.5 µM
- TGI [5]: 69.7 µM
- TGI [6]: 39.9 µM
- TGI [7]: > 100 µM
- TGI [8]: > 100 µM
- TGI [10]: 62.1 µM
- TGI [9]: 25.4 µM

SMILES: N#C/C(=C\c1ccccc1)C(NO)Nc1ccccc1 (stereo not given)
- TGI [1]: > 100 µM
- TGI [2]: > 100 µM
- TGI [3]: > 100 µM
- TGI [4]: > 100 µM
- TGI [5]: > 100 µM
- TGI [6]: > 100 µM
- TGI [7]: > 100 µM
- TGI [8]: > 100 µM
- TGI [10]: > 100 µM
- TGI [9]: > 100 µM

SMILES: Nc1ccc(-c2ccc3ncc4ccc(=O)n(-c5cccc(C(F)(F)F)c5)c4c3c2)cn1
- GI50 [1]: 13.5 nM
- TGI [1]: 1.41 µM
- GI50 [2]: < 0.01 µM
- TGI [2]: 1.47 µM
- GI50 [3]: < 10 nM
- TGI [3]: < 0.0226 µM
- GI50 [4]: < 10 nM
- TGI [4]: 0.0337 µM
- GI50 [5]: < 0.01 µM
- TGI [5]: 0.241 µM
- GI50 [6]: < 10 nM
- TGI [6]: 0.0443 µM
- GI50 [7]: < 0.0104 µM
- TGI [7]: 4.61 µM
- GI50 [8]: < 0.013 µM
- TGI [8]: 52.3 µM
- GI50 [10]: < 16 nM
- TGI [10]: 0.275 µM
- GI50 [9]: < 0.01 µM
- TGI [9]: 0.948 µM

SMILES: Nc1nc2c(ccc3ccccc32)s1
- GI50 [1]: > 100000 nM
- TGI [1]: > 100 µM
- GI50 [2]: > 100 µM
- TGI [2]: > 100 µM
- GI50 [3]: 19300 nM
- TGI [3]: 85.2 µM
- GI50 [4]: > 100000 nM
- TGI [4]: > 100 µM
- GI50 [5]: 43.8 µM
- TGI [5]: > 100 µM
- GI50 [6]: 37200 nM
- TGI [6]: > 100 µM
- GI50 [7]: 33.2 µM
- TGI [7]: > 100 µM
- GI50 [8]: > 100 µM
- TGI [8]: > 100 µM
- GI50 [10]: 35200 nM
- TGI [10]: > 100 µM
- GI50 [9]: > 100 µM
- TGI [9]: > 100 µM

SMILES: C=C(CO)CC(/C=C(\C)CC/C=C(\C)CCl)OC(C)=O (stereo not given)
- TGI [1]: > 100 µM
- TGI [2]: > 100 µM
- TGI [3]: > 100 µM
- TGI [4]: > 100 µM
- TGI [5]: > 100 µM
- TGI [6]: > 100 µM
- TGI [7]: > 100 µM
- TGI [8]: > 100 µM
- TGI [10]: > 100 µM
- TGI [9]: > 100 µM

SMILES: O=C([CH-]C(=O)c1ccccc1)c1ccccc1.O=C([CH-]C(=O)c1ccccc1)c1ccccc1.O=C([CH-]C(=O)c1ccccc1)c1ccccc1.[Cl-].[Zr+4]
- GI50 [2]: 20.1 µM
- TGI [2]: 75.5 µM
- GI50 [3]: 8090 nM
- TGI [3]: 36 µM
- GI50 [4]: 15900 nM
- TGI [4]: 88.4 µM
- GI50 [5]: 16.6 µM
- TGI [5]: > 100 µM
- GI50 [6]: 15000 nM
- TGI [6]: 71.9 µM
- GI50 [7]: 15.8 µM
- TGI [7]: > 100 µM
- GI50 [10]: 27600 nM
- TGI [10]: 72.4 µM
- GI50 [9]: 12.1 µM
- TGI [9]: > 100 µM

SMILES: COc1cc(-c2nccc3cc4c(cc23)OCO4)cc(OC)c1OC
- GI50 [1]: 4560 nM
- TGI [1]: > 100 µM
- GI50 [2]: 7.55 µM
- TGI [2]: > 100 µM
- GI50 [3]: 11500 nM
- TGI [3]: > 100 µM
- GI50 [4]: > 100000 nM
- TGI [4]: > 100 µM
- GI50 [5]: 4.98 µM
- TGI [5]: > 100 µM
- GI50 [6]: 3400 nM
- TGI [6]: 18.3 µM
- GI50 [7]: 5.56 µM
- TGI [7]: > 100 µM
- GI50 [8]: 7.34 µM
- TGI [8]: > 100 µM
- GI50 [10]: 5640 nM
- TGI [10]: > 100 µM
- GI50 [9]: 4.86 µM
- TGI [9]: > 100 µM

SMILES: CCOC(=O)C#Cc1c(C(=O)OCC)nnn1[C@@H]1O[C@H](CO)[C@H]2OC3(CCCCC3)O[C@H]21
- GI50 [1]: 1920 nM
- TGI [1]: 3.48 µM
- GI50 [2]: 17.7 µM
- TGI [2]: 33.7 µM
- GI50 [3]: 2230 nM
- TGI [3]: 5.27 µM
- GI50 [4]: 2040 nM
- TGI [4]: 4.48 µM
- GI50 [5]: 3.07 µM
- TGI [5]: 7.97 µM
- GI50 [6]: 1800 nM
- TGI [6]: 3.46 µM
- GI50 [7]: 14.3 µM
- TGI [7]: 34.6 µM
- GI50 [8]: 18.3 µM
- TGI [8]: 40.5 µM
- GI50 [10]: 1790 nM
- TGI [10]: 3.28 µM
- GI50 [9]: 11.2 µM
- TGI [9]: 23.2 µM

SMILES: CCC[CH2][Sn]([CH2]CCC)([CH2]CCC)[O]C(=O)C(OC)c1ccccc1 (stereo not given)
- GI50 [1]: 50.8 nM
- TGI [1]: 0.182 µM
- GI50 [2]: 0.135 µM
- TGI [2]: 0.27 µM
- GI50 [3]: 27.4 nM
- TGI [3]: 0.175 µM
- GI50 [4]: 60.4 nM
- TGI [4]: 0.189 µM
- GI50 [5]: 0.0206 µM
- TGI [5]: 0.306 µM
- GI50 [6]: 56.1 nM
- TGI [6]: 0.194 µM
- GI50 [7]: 0.112 µM
- TGI [7]: 0.327 µM
- GI50 [8]: 0.156 µM
- TGI [8]: 0.301 µM
- GI50 [10]: 263 nM
- TGI [10]: 0.984 µM
- GI50 [9]: 0.106 µM
- TGI [9]: 0.225 µM

SMILES: COC(=O)N/N=C(\C)C(CN(C)C)C(c1ccccc1)c1c(O)c2ccccc2oc1=O (stereo not given)
- TGI [1]: > 100 µM
- TGI [2]: > 100 µM
- TGI [3]: > 100 µM
- TGI [4]: > 100 µM
- TGI [5]: > 100 µM
- TGI [6]: > 100 µM
- TGI [7]: > 100 µM
- TGI [8]: > 100 µM
- TGI [10]: > 100 µM
- TGI [9]: > 100 µM

SMILES: CCc1nc2cc(/C=C/C(=O)NO)ccc2c(=O)n1CCc1ccc(OC)cc1
- GI50 [1]: 1590 nM
- TGI [1]: 9.51 µM
- GI50 [2]: 2.45 µM
- TGI [2]: 7.68 µM
- GI50 [3]: 1900 nM
- TGI [3]: 5.7 µM
- GI50 [4]: 2960 nM
- TGI [4]: 58.7 µM
- GI50 [5]: 2.38 µM
- TGI [5]: 56.1 µM
- GI50 [6]: 1740 nM
- TGI [6]: 4.74 µM
- GI50 [7]: 2.44 µM
- TGI [7]: 13.1 µM
- GI50 [8]: 3.21 µM
- TGI [8]: 21.4 µM
- GI50 [10]: 1600 nM
- TGI [10]: 5.79 µM
- GI50 [9]: 1.99 µM
- TGI [9]: 4.87 µM

SMILES: COC(=O)/C(=C/c1ccc(OC)cc1)C(C(=O)O)=C1CCCCC1
- TGI [1]: > 100 µM
- TGI [2]: > 100 µM
- TGI [3]: > 100 µM
- TGI [4]: > 100 µM
- TGI [5]: > 100 µM
- TGI [6]: > 100 µM
- TGI [8]: > 100 µM
- TGI [10]: > 100 µM
- TGI [9]: > 100 µM

SMILES: O=C(O)Cn1ccc2ccccc21
- GI50 [1]: > 100000 nM
- TGI [1]: > 100 µM
- GI50 [2]: > 100 µM
- TGI [2]: > 100 µM
- TGI [3]: > 100 µM
- GI50 [4]: > 100000 nM
- TGI [4]: > 100 µM
- GI50 [5]: > 100 µM
- TGI [5]: > 100 µM
- GI50 [6]: > 100000 nM
- TGI [6]: > 100 µM
- GI50 [7]: > 100 µM
- TGI [7]: > 100 µM
- GI50 [8]: > 100 µM
- TGI [8]: > 100 µM
- GI50 [9]: > 100 µM
- TGI [9]: > 100 µM
